Reference: patent US6288085A, “Piperidine derivatives for treating psychoses” (Akzo Nobel N.V., priority 1996, dated 2001)

What was measured:
[1] = tested on: climbing behaviour in mice, induced by apomorphine (dopamine receptors); experiment: Apomorphine climbing test (ACT) in mice; format: in vivo; conditions: Mus musculus, 0.75 mg/kg apomorphine HCl sc after 30 min, scored at 10 and 20 min
Excerpt: Apomorphine Climbing Test In Mice
The ability of dopamine receptor antagonists to inhibit the behavioural effects in rodents caused by dopamine agonists such as apomorphine is a well established criterion for predicting the antipsychotic efficacy of these drugs in man (see e.g. W. C. Bowman and M. J. Rand, Textbook of Pharmacology, 2nd ed., 1980, 15, 6). A particularly relevant test in this respect is the apomorphine climbing test (ACT) which measures the ability of a dopamine antagonist to inhibit the climbing behaviour in mice, induced by the subcutaneous or oral administration of apomorphine. Activity in this test, following systemic and oral administration, has been widely used as a predictor of antipsychotic activity i.e. anti-schizophrenic activity (see e.g. J. T Strupczewski et.al., J. Med. Chem., 1995, 38, 1119). Mice treated with apomorphine HCl tend to adopt a vertical position along the wall of a wire mesh cylinder, standing or climbing. This climbing behaviour is considered to be elicited by apomorphine-mediated stimulation of dopamine receptors. […] Test compounds which modulate this climbing behaviour may have anti-psychotic activity.
The various treatments are randomly distributed over the mice. Each experiment consists of 1+n treatment groups: 1 being a control group of 12 mice receiving apomorphine and vehicle subcutaneously or being a control group of 12 mice receiving apomorphine subcutaneously and vehicle orally; n being (usually 4) compound groups of 12 mice receiving apomorphine and test compound subcutaneously or being compound groups of 12 mice receiving apomorphine subcutaneously and test compound orally.
Experiments are performed in 3 runs of 20 mice each. The mice are marked and weighed, test compound or vehicle is administered subcutaneously and the mice are placed in small Macrolon cages of 17×11×13 cm, 5 mice per cage, or test compound or vehicle is administered orally and the mice are placed in Macrolon cages of 29×11×13 cm, 5 mice per cage. After 30 min 0.75 mg/kg apomorphine HCl is administered subcutaneously in mice treated subcutaneously with vehicle or test compound, or 0.75 mg/kg apomorphine HCl is administered subcutaneously in mice treated orally with vehicle or test compound, and the mice are placed individually in a wire mesh cylinder (diameter 12 cm, height 14 cm).
At 10 min after the treatment with apomorphine the climbing behaviour of each mouse is observed and expressed as a score, according to the following grade: […]
4 paws on the floor score 0
1 or 2 paws holding the wall score 1
3 or 4 paws holding the wall score 2
At 20 min after the treatment with apomorphine the climbing behaviour is observed and scored again. For each treatment group the mean score per mouse is determined. The score of the control group should be at least 1.0; if not, the trial is rejected. The final result per group is expressed as the percentage over the control group.
The results of this test for the present test compounds are denoted in Table I (subcutaneous and oral administration of test compound).

Catalepsy in rats (CATR) = format: in vivo, Male Wistar rats; conditions: rat; catalepsy assessed at 60 and 120 minutes after drug administration
Method: (§1) Catalepsy in rats: Male Wistar rats (100-125 g, Olac UK) were used for catalepsy experiments. Catalepsy was assessed as described previously (Broekkamp et al, Naunyn Schmiedeberg's Arch. Pharmacol. 338, 191 1988). Briefly, rats were tested in 6 different observation trials in which the animals were placed in abnormal postures and scored positively with one point for maintaining the imposed posture for 10s. The imposed postures were; vertical clinging to a grid, upright standing with a high support for the front paws, extension of hindlegs, placement on back, placement of spatula in the mouth and rotation in a wire mesh cylinder.
(§2) Theoretically a maximum score of 6 can be reached. Catalepsy was assessed at 60 and 120 minutes after drug administration. The data were evaluated by 2 way ANOVAR followed by a Newman Kools post hoc test and ED50 values calculated (Table II).

catalepsy = experiment: Catalepsy in rats (CATR); format: in vivo, Male Wistar rats
Method: as §1, §2

[2] = sc administration of test compound
[3] = po administration of test compound

SMILES | ED50 [1, 2] [mg/kg] | ED50 (Catalepsy in rats (CATR)) [mg/kg] | CATR score at max dose (catalepsy; rat, in vivo, 14 mg/kg) | ED50 [1, 3] [mg/kg] | CATR score at max dose (catalepsy; at 56 mg/kg, theoretical maximum score 6, 60 and 120 minutes) | CATR score at max dose (catalepsy; at 75 mg/kg, theoretical maximum score 6, 60 and 120 minutes)
CN1CCC(=C(c2ccccc2)c2ccc(Cl)s2)CC1 [Compound C, 1-methyl-4-[(-5-chloro-2-thienyl)-phenyl]methylenepiperidine, reference compound] | 22 | – | – | – | – | –
CN(C)CCCN1c2ccccc2Sc2ccc(Cl)cc21 [chlorpromazine, reference compound] | – | 4.8 | 5.3 | – | – | –
CN1CCC(=C(c2ccccc2)c2cccs2)CC1 [Compound B, 1-methyl-4-(2-thienyl)-phenyl-methylenepiperidine, reference compound] | 22 | – | – | – | – | –
CN1CCC(=C(c2ccc(F)cc2)c2cccs2)CC1 [Compound A, 1-methyl-4-[(2-thienyl)-(4-fluorophenyl)]methylenepiperidine, reference compound] | 2.8 | – | – | 100 | – | –
CN1CCC(=C(c2ccc(F)cc2)c2cc(Cl)cs2)CC1 [Example 2, 1-methyl-4-[(4-chloro-2-thienyl)-(4-fluorophenyl)]-methylene-piperidine] | 0.6 | > 50 | – | 5 | 0.2 | –
Cc1csc(C(=C2CCN(C)CC2)c2ccc(F)cc2)c1 [Example 3, 1-methyl-4-[(4-methyl-2-thienyl)-(4-fluoropheny)]methylene-piperidine] | 1.5 | > 75 | – | 8.6 | – | 0.2
